In general, pEC50 refers to the EC50 on a negative log10 scale, so that one unit is a factor of ten. As a reminder, the Emax is the greatest response seen or fitted, relative to the assay's reference.

pEC50: −log10 of the molar value.

For this test, the target named is F508delCFTR (Homo sapiens, UniProt P13569, DEL508-508). In words: Cell Surface Expression-Horse Radish Peroxidase (CSE-HRP) assay. The class given is cell-based. Further details: expressed in transfected cells; host or cells: CFBE41o- human lung derived epithelial cell line, doxycycline-inducible. The note with it: CFBE4lo-F508delCFTR-HRP cells; for pEC50: 18-24 hours at 33° C., 8-point curve, highest concentration 20 μM, luminescence readout; for Emax / Maximum % activity (%): maximum % activity at any tested concentration, normalized to on-plate positive control (3 μM Example 1). The procedure, abridged:
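Following 18-24 h compound exposure at 33° C. Expression was doxycycline-induced beforehand. % activity versus DMSO and a 3 μM corrector control gave maximum activity and EC50 from a variable-Hill sigmoidal fit.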

Chain of F508delCFTR (P13569 with tags, fused parts or gaps DEL508-508): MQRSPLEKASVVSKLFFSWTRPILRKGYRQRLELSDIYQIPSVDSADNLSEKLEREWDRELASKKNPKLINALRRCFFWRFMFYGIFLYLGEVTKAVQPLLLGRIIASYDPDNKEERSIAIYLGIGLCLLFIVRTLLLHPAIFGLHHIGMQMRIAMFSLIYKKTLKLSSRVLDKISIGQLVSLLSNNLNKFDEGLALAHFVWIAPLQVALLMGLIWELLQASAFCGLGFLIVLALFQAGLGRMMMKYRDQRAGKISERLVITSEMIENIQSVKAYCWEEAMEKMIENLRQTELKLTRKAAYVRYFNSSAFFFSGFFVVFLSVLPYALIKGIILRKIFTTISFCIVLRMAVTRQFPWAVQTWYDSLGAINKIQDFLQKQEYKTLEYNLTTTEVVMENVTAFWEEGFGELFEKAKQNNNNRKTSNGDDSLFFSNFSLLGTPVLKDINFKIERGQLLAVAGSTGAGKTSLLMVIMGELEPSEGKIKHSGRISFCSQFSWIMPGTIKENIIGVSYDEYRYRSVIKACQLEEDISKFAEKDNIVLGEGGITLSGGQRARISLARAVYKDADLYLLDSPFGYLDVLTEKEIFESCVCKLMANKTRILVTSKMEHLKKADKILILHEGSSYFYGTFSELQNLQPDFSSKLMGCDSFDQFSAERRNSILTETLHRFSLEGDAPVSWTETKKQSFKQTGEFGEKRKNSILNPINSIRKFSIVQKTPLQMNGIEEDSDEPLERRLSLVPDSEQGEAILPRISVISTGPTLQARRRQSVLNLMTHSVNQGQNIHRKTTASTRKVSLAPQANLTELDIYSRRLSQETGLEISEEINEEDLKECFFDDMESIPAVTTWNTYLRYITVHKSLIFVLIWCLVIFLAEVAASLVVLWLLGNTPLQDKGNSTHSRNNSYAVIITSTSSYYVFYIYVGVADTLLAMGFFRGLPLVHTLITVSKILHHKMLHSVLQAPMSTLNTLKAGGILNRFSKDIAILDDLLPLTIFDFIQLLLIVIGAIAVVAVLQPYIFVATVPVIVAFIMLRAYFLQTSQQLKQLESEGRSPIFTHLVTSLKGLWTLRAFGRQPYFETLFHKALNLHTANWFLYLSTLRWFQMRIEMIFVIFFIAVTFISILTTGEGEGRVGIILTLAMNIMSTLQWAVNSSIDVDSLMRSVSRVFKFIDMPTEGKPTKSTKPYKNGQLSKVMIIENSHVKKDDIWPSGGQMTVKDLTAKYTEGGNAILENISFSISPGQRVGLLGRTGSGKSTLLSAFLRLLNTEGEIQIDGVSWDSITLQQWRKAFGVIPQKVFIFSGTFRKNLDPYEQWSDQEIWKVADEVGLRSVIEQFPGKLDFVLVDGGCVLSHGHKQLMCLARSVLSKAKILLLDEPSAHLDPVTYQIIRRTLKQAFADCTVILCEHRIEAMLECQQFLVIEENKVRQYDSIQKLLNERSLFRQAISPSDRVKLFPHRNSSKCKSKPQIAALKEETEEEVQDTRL

For the molecule `COC(=O)c1cccc([C@H]2C[C@@H](NC(=O)C3(c4ccc5c(c4)OC(F)(F)O5)CC3)c3ccc(F)nc3O2)c1` (racemic) [Example 113, methyl rac-3-[(2R,4R)-4-({[1-(2,2-difluoro-1,3-benzodioxol-5-yl)cyclopropyl]carbonyl}amino)-7-fluoro-3,4-dihydro-2H-pyrano[2,3-b]pyridin-2-yl]benzoate], the pEC50 is 5.45 and the Emax stood at 49%.

For the molecule `COc1ccc2c(c1)O[C@@H](C(=O)N(CCO)Cc1ccccc1)C[C@H]2NC(=O)C1(c2ccc3c(c2)OC(F)(F)O3)CC1` (racemic) [Example 167, rac-(2R,4R)—N-benzyl-4-({[1-(2,2-difluoro-1,3-benzodioxol-5-yl)cyclopropyl]carbonyl}amino)-N-(2-hydroxyethyl)-7-methoxy-3,4-dihydro-2H-chromene-2-carboxamide], the pEC50 was 5.97 and the Emax came out at 66%.

As to `O=C(NC1C[C@H](c2cccc(CO)c2)Oc2ccccc21)C1(c2ccc3c(c2)OC(F)(F)O3)CC1` (stereo partly drawn) [Example 58, 1-(2,2-difluoro-1,3-benzodioxol-5-yl)-N-{(2R)-2-[3-(hydroxymethyl)phenyl]-3,4-dihydro-2H-chromen-4-yl}cyclopropanecarboxamide], the pEC50 is 5.60 and the maximal response (Emax) was 101%.

`O=C(O)c1cccc([C@H]2C[C@H](NC(=O)C3(c4ccc5c(c4)OC(F)(F)O5)CC3)c3ccccc3O2)c1` [Example 10, 3-[(2R,4S)-4-({[1-(2,2-difluoro-1,3-benzodioxol-5-yl)cyclopropyl]carbonyl}amino)-3,4-dihydro-2H-chromen-2-yl]benzoic acid] gave a pEC50 of 5.39 and a maximum response (Emax) of 112%.

`C[C@@]1(C(F)(F)F)C[C@@H](NC(=O)C2(c3ccc4c(c3)OC(F)(F)O4)CC2)c2ccccc2O1` [Example 85, 1-(2,2-difluoro-1,3-benzodioxol-5-yl)-N-[(2S,4R)-2-methyl-2-(trifluoromethyl)-3,4-dihydro-2H-chromen-4-yl]cyclopropanecarboxamide] had a negative-log EC50 (pEC50) of 5.17 and a maximum response (Emax) of 108%.

`COC(=O)c1cccc([C@H]2C[C@H](NC(=O)C3(c4ccc5c(c4)OC(F)(F)O5)CC3)c3cccnc3O2)c1` (racemic) [Example 34, rac-methyl 3-[(2R,4S)-4-({[1-(2,2-difluoro-1,3-benzodioxol-5-yl)cyclopropyl]carbonyl}amino)-3,4-dihydro-2H-pyrano[2,3-b]pyridin-2-yl]benzoate]: the pEC50 was at most 4.70 and the maximum response (Emax) is 15%.

`COc1ccc2c(c1)OC(c1ccccc1)CC2NC(=O)C1(c2ccc3c(c2)OC(F)(F)O3)CC1` (stereo not drawn) [Example 60, 1-(2,2-difluoro-1,3-benzodioxol-5-yl)-N-(7-methoxy-2-phenyl-3,4-dihydro-2H-chromen-4-yl)cyclopropanecarboxamide] gave a pEC50 of 6.15 and an Emax of 131%.

Regarding `CCOC(=O)c1cccc([C@H]2C[C@@H](NC(=O)C3(c4ccc5c(c4)OC(F)(F)O5)CC3)c3ccncc3O2)c1` (stereo in doubt) [Example 25, ethyl rel-3-[(2R,4R)-4-({[1-(2,2-difluoro-1,3-benzodioxol-5-yl)cyclopropyl]carbonyl}amino)-3,4-dihydro-2H-pyrano[2,3-c]pyridin-2-yl]benzoate], the pEC50 is 5.41 and the maximum response (Emax) was determined as 41%.

`COc1ccc2c(c1)OC1(CC(C(=O)O)C1)CC2NC(=O)C1(c2ccc3c(c2)OC(F)(F)O3)CC1` (stereo not drawn) [Example 129, 4-({[1-(2,2-difluoro-1,3-benzodioxol-5-yl)cyclopropyl]carbonyl}amino)-7-methoxy-3,4-dihydrospiro[chromene-2,1′-cyclobutane]-3′-carboxylic acid] gave a pEC50 of 5.21 and an Emax of 44%.

`O=C(NC1CC(c2ccc(F)cc2)Oc2ccccc21)C1(c2ccc3c(c2)OC(F)(F)O3)CC1` (stereo not drawn) [Example 71, 1-(2,2-difluoro-1,3-benzodioxol-5-yl)-N-[2-(4-fluorophenyl)-3,4-dihydro-2H-chromen-4-yl]cyclopropanecarboxamide] had a pEC50 of 5.55 and an Emax of 91%.

Regarding `O=C(O)c1ccc([C@H]2C[C@@H](NC(=O)C3(c4ccc5c(c4)OC(F)(F)O5)CC3)c3ccccc3O2)nc1` (racemic) [Example 154, rac-6-[(2R,4R)-4-({[1-(2,2-difluoro-1,3-benzodioxol-5-yl)cyclopropyl]carbonyl}amino)-3,4-dihydro-2H-chromen-2-yl]pyridine-3-carboxylic acid], the pEC50 is 6.17 and the Emax was 106%.

As to `CS(=O)(=O)N1CC2(CC(NC(=O)C3(c4ccc5c(c4)OC(F)(F)O5)CC3)c3ccc(F)cc3O2)C1` (stereo not drawn) [Example 104, 1-(2,2-difluoro-1,3-benzodioxol-5-yl)-N-[7′-fluoro-1-(methylsulfonyl)-3′,4′-dihydrospiro[azetidine-3,2′-chromen]-4′-yl]cyclopropanecarboxamide], the pEC50 is 5.18 and the Emax was 49%.

On to “N-[2-(3,4-dichlorophenyl)-3,4-dihydro-2H-chromen-4-yl]-1-(2,2-difluoro-1,3-benzodioxol-5-yl)cyclopropanecarboxamide [Example 66]”, for which the pEC50 was 5.21 and the “Maximum % activity (%)” value is listed as 89%.

With `O=C(NC1c2ccccc2OCC1Cc1ccccc1)C1(c2ccc3c(c2)OC(F)(F)O3)CC1` (stereo not drawn) [Example 73, N-(3-benzyl-3,4-dihydro-2H-chromen-4-yl)-1-(2,2-difluoro-1,3-benzodioxol-5-yl)cyclopropanecarboxamide], the pEC50 is 5.12 and the Emax came out at 57%.

`Cc1ccc2c(c1)O[C@@H](c1cccc(C(=O)O)c1)C[C@@H]2NC(=O)C1(c2ccc3c(c2)OC(F)(F)O3)CC1` [Example 15, 3-[(2R,4S)-4-({[1-(2,2-difluoro-1,3-benzodioxol-5-yl)cyclopropyl]carbonyl}amino)-7-methyl-3,4-dihydro-2H-chromen-2-yl]benzoic acid] had a pEC50 of 5.61 and an Emax of 101%.

With `O=C(O)c1cccc([C@H]2C[C@@H](NC(=O)C3(c4ccc5c(c4)OC(F)(F)O5)CC3)c3cccnc3O2)c1` (racemic) [Example 31, rac-3-[(2R,4R)-4-({[1-(2,2-difluoro-1,3-benzodioxol-5-yl)cyclopropyl]carbonyl}amino)-3,4-dihydro-2H-pyrano[2,3-b]pyridin-2-yl]benzoic acid], the negative logarithm of the EC50 (pEC50) is 4.97 and the Emax was 21%.

The molecule `COc1ccc2c(c1)OC(c1ccc(OC)c(OC)c1)CC2NC(=O)C1(c2ccc3c(c2)OC(F)(F)O3)CC1` (stereo not drawn) [Example 62, 1-(2,2-difluoro-1,3-benzodioxol-5-yl)-N-[2-(3,4-dimethoxyphenyl)-7-methoxy-3,4-dihydro-2H-chromen-4-yl]cyclopropanecarboxamide] had a pEC50 of 6.16 and an Emax of 135%.

With `CCOC(=O)c1ccc([C@H]2C[C@@H](NC(=O)C3(c4ccc5c(c4)OC(F)(F)O5)CC3)c3ccccc3O2)nc1` (racemic) [Example 150, ethyl rac-6-[(2R,4R)-4-({[1-(2,2-difluoro-1,3-benzodioxol-5-yl)cyclopropyl]carbonyl}amino)-3,4-dihydro-2H-chromen-2-yl]pyridine-3-carboxylate], the pEC50 was 6.38 and the Emax is 106%.

As for `O=C(O)c1ccc([C@H]2C[C@@H](NC(=O)C3(c4cc5c(cc4Br)OC(F)(F)O5)CC3)c3ccc(OC(F)F)cc3O2)cc1` [Example 202, 4-[(2R,4R)-4-({[1-(6-bromo-2,2-difluoro-1,3-benzodioxol-5-yl)cyclopropyl]carbonyl}amino)-7-(difluoromethoxy)-3,4-dihydro-2H-chromen-2-yl]benzoic acid], the pEC50 is 8.00 and the Emax is 142%.

Take `O=C(N[C@@H]1CC(CF)(CF)Oc2ccccc21)C1(c2ccc3c(c2)OC(F)(F)O3)CC1` [Example 75, N-[(4R)-2,2-bis(fluoromethyl)-3,4-dihydro-2H-chromen-4-yl]-1-(2,2-difluoro-1,3-benzodioxol-5-yl)cyclopropanecarboxamide]: the negative-log EC50 (pEC50) was 5.48 and the Emax was 75%.

Consider `COc1ccc2c(c1)OC1(CCN(C(=O)C(C)(C)CO)CC1)CC2NC(=O)C1(c2ccc3c(c2)OC(F)(F)O3)CC1` (stereo not drawn) [Example 107, 1-(2,2-difluoro-1,3-benzodioxol-5-yl)-N-[1′-(3-hydroxy-2,2-dimethylpropanoyl)-7-methoxy-3,4-dihydrospiro[chromene-2,4′-piperidin]-4-yl]cyclopropanecarboxamide], for which the pEC50 is 5.95 and the Emax was 99%.

As to `COC(=O)c1cccc([C@H]2C[C@H](NC(=O)C3(c4ccc5c(c4)OC(F)(F)O5)CC3)c3ccc(F)nc3O2)c1` (racemic) [Example 118, methyl rac-3-[(2R,4S)-4-({[1-(2,2-difluoro-1,3-benzodioxol-5-yl)cyclopropyl]carbonyl}amino)-7-fluoro-3,4-dihydro-2H-pyrano[2,3-b]pyridin-2-yl]benzoate], the pEC50 was 5.09 and the maximal response (Emax) stood at 25%.

Turning to `O=C(O)c1cnc(C2CC(NC(=O)C3(c4ccc5c(c4)OC(F)(F)O5)CC3)c3ccccc3O2)s1` (single isomer, unassigned) [Example 133], the pEC50 is 5.15 and the “Maximum % activity (%)” value was found to be 25%.

With `O=C(OCc1ccccc1)N1CC2(CC(NC(=O)C3(c4ccc5c(c4)OC(F)(F)O5)CC3)c3ccc(F)cc3O2)C1` (stereo not drawn) [Example 100, benzyl 4′-({[1-(2,2-difluoro-1,3-benzodioxol-5-yl)cyclopropyl]carbonyl}amino)-7′-fluoro-3′,4′-dihydro-1H-spiro[azetidine-3,2′-chromene]-1-carboxylate], the pEC50 is 5.51 and the Emax came to 40%.
